Source: ChEMBL document CHEMBL1131541, “New synthetic inhibitors of microtubule depolymerization” (1998)
The source made the active and inactive calls. The rule behind the calls is not given here.

Target: Tubulin beta chain (Bos taurus) (UniProt Q6B856)
Test: Effect on microtubule stabilization isolated from bovine brain

Tubulin beta chain (Bos taurus), sequence (Q6B856 whole entry): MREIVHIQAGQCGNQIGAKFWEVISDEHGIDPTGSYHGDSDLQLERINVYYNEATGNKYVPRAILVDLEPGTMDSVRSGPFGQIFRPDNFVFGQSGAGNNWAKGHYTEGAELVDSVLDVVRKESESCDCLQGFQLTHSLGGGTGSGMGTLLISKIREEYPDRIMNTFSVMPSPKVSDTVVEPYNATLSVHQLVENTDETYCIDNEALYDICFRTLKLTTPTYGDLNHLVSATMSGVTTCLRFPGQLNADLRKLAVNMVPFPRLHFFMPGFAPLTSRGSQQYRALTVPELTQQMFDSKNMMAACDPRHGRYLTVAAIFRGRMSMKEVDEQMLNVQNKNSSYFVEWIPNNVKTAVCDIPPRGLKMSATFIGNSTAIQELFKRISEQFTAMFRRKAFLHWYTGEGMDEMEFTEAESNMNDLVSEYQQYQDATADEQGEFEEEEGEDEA

SMILES	Relative stability [%]
CCOC(=O)N[C@@H](c1ccccc1)[C@@H](O)C(=O)OC1CC2C(C)(C)C1(C)[C@@]13C[C@H](C)c4ccccc4[C@@]21O3 (stereo partly specified)	209
CC(C)NC(=O)N[C@@H](c1ccccc1)[C@@H](O)C(=O)OC1CC2C(C)(C)C1(C)[C@@]13C[C@H](C)c4ccccc4[C@@]21O3 (stereo partly specified)	150
C=C1C[C@@]23O[C@]2(c2ccccc21)C1CC(OC(=O)[C@H](O)[C@@H](NC(=O)NC(C)(C)C)c2ccccc2)C3(C)C1(C)C (stereo partly specified)	92
C=C1C[C@@]23O[C@]2(c2ccccc21)C1CC(OC(=O)[C@H](O)[C@@H](NC(=O)OCC)c2ccncc2)C3(C)C1(C)C (stereo partly specified)	423
CCOC(=O)N[C@@H](c1ccc(O)cc1)[C@@H](O)C(=O)OC1CC2C(C)(C)C1(C)[C@@]13C[C@H](C)c4ccccc4[C@@]21O3 (stereo partly specified)	306
C[C@H]1C[C@@]23O[C@]2(c2ccccc21)C1CC(OC(=O)[C@H](O)[C@@H](NC(=O)OC(C)(C)C)c2ccccc2)C3(C)C1(C)C (stereo partly specified)	148
CCCC(=O)N[C@@H](c1ccccc1)[C@@H](O)C(=O)OC1CC2C(C)(C)C1(C)[C@@]13C[C@H](C)c4ccccc4[C@@]21O3 (stereo partly specified)	168
CC(C)NC(=O)N[C@@H](c1ccsc1)[C@@H](O)C(=O)OC1CC2C(C)(C)C1(C)[C@@]13CC(C)c4ccccc4[C@@]21O3 (stereo partly specified)	56
C=C1C[C@@]23O[C@]2(c2ccccc21)C1CC(OC(=O)[C@H](O)[C@@H](NC(=O)CC(C)C)c2ccccc2)C3(C)C1(C)C (stereo partly specified)	101
CCOC(=O)N[C@@H](c1cccnc1)[C@@H](O)C(=O)OC1CC2C(C)(C)C1(C)[C@@]13C[C@H](C)c4ccccc4[C@@]21O3 (stereo partly specified)	119
CCCCOC(=O)N[C@@H](c1ccc(O)cc1)[C@@H](O)C(=O)OC1CC2C(C)(C)C1(C)[C@@]13CC(C)c4ccccc4[C@@]21O3 (stereo partly specified)	80
CCCC(=O)N[C@@H](c1ccsc1)[C@@H](O)C(=O)OC1CC2C(C)(C)C1(C)[C@@]13CC(C)c4ccccc4[C@@]21O3 (stereo partly specified)	91
CCOC(=O)N[C@@H](c1ccncc1)[C@@H](O)C(=O)OC1CC2C(C)(C)C1(C)[C@@]13C[C@H](C)c4ccccc4[C@@]21O3 (stereo partly specified)	1300
C=C1C[C@@]23O[C@]2(c2ccccc21)C1CC(OC(=O)[C@H](O)[C@@H](NC(=O)NC(C)C)c2ccccc2)C3(C)C1(C)C (stereo partly specified)	103
C=C1C[C@@]23O[C@]2(c2ccccc21)C1CC(OC(=O)[C@H](O)[C@@H](NC(C)=O)c2ccccc2)C3(C)C1(C)C (stereo partly specified)	89
CCOC(=O)N[C@@H](c1ccccc1)[C@@H](O)C(=O)OC1CC2C(C)(C)C1(C)[C@@]13C[C@](O)(COC(C)=O)c4ccccc4[C@@]21O3 (stereo partly specified)	22
C=C1C[C@@]23O[C@]2(c2ccccc21)C1CC(OC(=O)[C@H](O)[C@@H](NC(=O)OCC)c2cccs2)C3(C)C1(C)C (stereo partly specified)	215
C[C@H]1C[C@@]23O[C@]2(c2ccccc21)C1CC(OC(=O)[C@H](O)[C@@H](NC(=O)CCC2CCCC2)c2ccccc2)C3(C)C1(C)C (stereo partly specified)	86
C=C1C[C@@]23O[C@]2(c2ccccc21)C1CC(OC(=O)[C@H](O)[C@@H](NC(=O)OCC)c2ccc(O)cc2)C3(C)C1(C)C (stereo partly specified)	130
COC(=O)N[C@@H](c1ccncc1)[C@@H](O)C(=O)OC1CC2C(C)(C)C1(C)[C@@]13C[C@](O)(COC(C)=O)c4ccccc4[C@@]21O3 (stereo partly specified)	116
C=C1C[C@@]23O[C@]2(c2ccccc21)C1CC(OC(=O)[C@H](O)[C@@H](NC(=O)NCCCC)c2ccccc2)C3(C)C1(C)C (stereo partly specified)	68
CCOC(=O)N[C@@H](c1ccccc1)[C@@H](O)C(=O)OC1CC2C(C)(C)C1(C)[C@@]13C[C@](O)(CO)c4ccccc4[C@@]21O3 (stereo partly specified)	20
CCCC(=O)N[C@@H](c1ccncc1)[C@@H](O)C(=O)OC1CC2C(C)(C)C1(C)[C@@]13CC(C)c4ccccc4[C@@]21O3 (stereo partly specified)	862
C=C1C[C@@]23O[C@]2(c2ccccc21)C1CC(OC(=O)[C@H](O)[C@@H](NC(=O)CCC)c2ccccc2)C3(C)C1(C)C (stereo partly specified)	114
C=C1C[C@@]23O[C@]2(c2ccccc21)C1CC(OC(=O)[C@H](O)[C@@H](NC(=O)OCC)c2ccc(F)cc2)C3(C)C1(C)C (stereo partly specified)	152
C=C1C[C@@]23O[C@]2(c2ccccc21)C1CC(OC(=O)[C@H](O)[C@@H](NC(=O)OCC)c2ccc(C)cc2)C3(C)C1(C)C (stereo partly specified)	142
C=C1C[C@@]23O[C@]2(c2ccccc21)C1CC(OC(=O)[C@H](O)[C@@H](NC(=O)OCC)c2ccccc2)C3(C)C1(C)C (stereo partly specified)	228
COC(=O)N[C@@H](c1ccc(O)cc1)[C@@H](O)C(=O)OC1CC2C(C)(C)C1(C)[C@@]13CC(C)c4ccccc4[C@@]21O3 (stereo partly specified)	293

SMILES	Relative stability [%]
COC(=O)N[C@@H](c1ccccc1)[C@@H](O)C(=O)OC1CC2C(C)(C)C1(C)[C@@]13C[C@H](C)c4ccccc4[C@@]21O3 (stereo partly specified)	244
CCOC(=O)N[C@@H](c1ccoc1)[C@@H](O)C(=O)OC1CC2C(C)(C)C1(C)[C@@]13C[C@H](C)c4ccccc4[C@@]21O3 (stereo partly specified)	190
CCOC(=O)N[C@@H](c1ccc(F)cc1)[C@@H](O)C(=O)OC1CC2C(C)(C)C1(C)[C@@]13C[C@H](C)c4ccccc4[C@@]21O3 (stereo partly specified)	139
CCOC(=O)N[C@@H](c1ccncc1)[C@@H](O)C(=O)OC1CC2C(C)(C)C1(C)[C@@]13C[C@@H](C)c4ccccc4[C@@]21O3 (stereo partly specified)	227
CCOC(=O)N[C@@H](c1cccs1)[C@@H](O)C(=O)OC1CC2C(C)(C)C1(C)[C@@]13C[C@H](C)c4ccccc4[C@@]21O3 (stereo partly specified)	311
C=C1C[C@@]23O[C@]2(c2ccccc21)C1CC(OC(=O)[C@H](O)[C@@H](NC(=O)OC)c2ccccc2)C3(C)C1(C)C (stereo partly specified)	164
C=C1C[C@@]23O[C@]2(c2ccccc21)C1CC(OC(=O)[C@H](O)[C@@H](NC(=O)OCC)c2ccoc2)C3(C)C1(C)C (stereo partly specified)	119
CCCCNC(=O)N[C@@H](c1ccccc1)[C@@H](O)C(=O)OC1CC2C(C)(C)C1(C)[C@@]13C[C@H](C)c4ccccc4[C@@]21O3 (stereo partly specified)	130
CCOC(=O)N[C@@H](c1ccc(C)cc1)[C@@H](O)C(=O)OC1CC2C(C)(C)C1(C)[C@@]13C[C@H](C)c4ccccc4[C@@]21O3 (stereo partly specified)	152
C=C1C[C@@]23O[C@]2(c2ccccc21)C1CC(OC(=O)[C@H](O)[C@@H](NC(=O)OCC)c2cccnc2)C3(C)C1(C)C (stereo partly specified)	65
C=C1C[C@@]23O[C@]2(c2ccccc21)C1CC(OC(=O)[C@H](O)[C@@H](NC(=O)OCC)c2ccc(OC)cc2)C3(C)C1(C)C (stereo partly specified)	95
C=C1C[C@@]23O[C@]2(c2ccccc21)C1CC(OC(=O)[C@H](O)[C@@H](NC(=O)CC)c2ccccc2)C3(C)C1(C)C (stereo partly specified)	108
C=C1C[C@@]23O[C@]2(c2ccccc21)C1CC(OC(=O)[C@H](O)[C@@H](NC(=O)OCC)c2cccc(F)c2)C3(C)C1(C)C (stereo partly specified)	106
CCOC(=O)N[C@@H](c1ccc(Cl)cc1)[C@@H](O)C(=O)OC1CC2C(C)(C)C1(C)[C@@]13C[C@H](C)c4ccccc4[C@@]21O3 (stereo partly specified)	193
COC(=O)N[C@@H](c1ccncc1)[C@@H](O)C(=O)OC1CC2C(C)(C)C1(C)[C@@]13C[C@]4(CO4)c4ccccc4[C@@]21O3 (stereo partly specified)	423
CCOC(=O)N[C@@H](c1ccc(OC)cc1)[C@@H](O)C(=O)OC1CC2C(C)(C)C1(C)[C@@]13C[C@H](C)c4ccccc4[C@@]21O3 (stereo partly specified)	125
C=C1C[C@@]23O[C@]2(c2ccccc21)C1CC(OC(=O)[C@H](O)[C@@H](NC(=O)OCC)c2ccsc2)C3(C)C1(C)C (stereo partly specified)	788
CCOC(=O)N[C@@H](c1ccncc1)[C@@H](O)C(=O)OC1CC2C(C)(C)C1(C)[C@@]13C[C@](O)(CO)c4ccccc4[C@@]21O3 (stereo partly specified)	327
C[C@H]1C[C@@]23O[C@]2(c2ccccc21)C1CC(OC(=O)[C@H](O)[C@@H](NC(=O)NC(C)(C)C)c2ccccc2)C3(C)C1(C)C (stereo partly specified)	153
CCOC(=O)N[C@@H](c1cccc(F)c1)[C@@H](O)C(=O)OC1CC2C(C)(C)C1(C)[C@@]13C[C@H](C)c4ccccc4[C@@]21O3 (stereo partly specified)	139
CCCCOC(=O)N[C@@H](c1ccncc1)[C@@H](O)C(=O)OC1CC2C(C)(C)C1(C)[C@@]13CC(C)c4ccccc4[C@@]21O3 (stereo partly specified)	-3
C=C1C[C@@]23O[C@]2(c2ccccc21)C1CC(OC(=O)[C@H](O)[C@@H](NC(=O)OCCCC)c2ccccc2)C3(C)C1(C)C (stereo partly specified)	83
CCOC(=O)N[C@@H](c1ccsc1)[C@@H](O)C(=O)OC1CC2C(C)(C)C1(C)[C@@]13C[C@H](C)c4ccccc4[C@@]21O3 (stereo partly specified)	788
CCOC(=O)N[C@@H](c1ccsc1)[C@@H](O)C(=O)OC1CC2C(C)(C)C1(C)[C@@]13C[C@@H](C)c4ccccc4[C@@]21O3 (stereo partly specified)	58
C=C1C[C@@]23O[C@]2(c2ccccc21)C1CC(OC(=O)[C@H](O)[C@@H](NC(=O)OC(C)(C)C)c2ccccc2)C3(C)C1(C)C (stereo partly specified)	27
C=C1C[C@@]23O[C@]2(c2ccccc21)C1CC(OC(=O)[C@H](O)[C@@H](NC(=O)OCC)c2ccc(Cl)cc2)C3(C)C1(C)C (stereo partly specified)	163
COC(=O)N[C@@H](c1ccsc1)[C@@H](O)C(=O)OC1CC2C(C)(C)C1(C)[C@@]13CC(C)c4ccccc4[C@@]21O3 (stereo partly specified)	316

Target: Tubulin beta chain (Bos taurus) (UniProt Q6B856)
Test: Compound was tested for its effect on microtubule stabilization isolated from bovine brain; NS: not significant

SMILES	Relative stability
CCOC(=O)N[C@@H](c1ccccc1)[C@@H](O)C(=O)OC1CC2C(C)(C)C1(C)[C@@]13C[C@@H](C)c4ccccc4[C@@]21O3 (stereo partly specified)	inactive
CCNC(=O)N[C@@H](c1ccccc1)[C@@H](O)C(=O)OC1CC2C(C)(C)C1(C)[C@@]13C[C@H](C)c4ccccc4[C@@]21O3 (stereo partly specified)	inactive
CCCCOC(=O)N[C@@H](c1ccccc1)[C@@H](O)C(=O)OC1CC2C(C)(C)C1(C)[C@@]13C[C@H](C)c4ccccc4[C@@]21O3 (stereo partly specified)	inactive
CCOC(=O)N[C@@H](c1ccc(OCc2ccccc2)cc1)[C@@H](O)C(=O)OC1CC2C(C)(C)C1(C)[C@@]13C[C@H](C)c4ccccc4[C@@]21O3 (stereo partly specified)	inactive
CCOC(=O)N[C@@H](c1ccsc1)[C@@H](O)C(=O)OC1CC2C(C)(C)C1(C)[C@@]13C[C@](O)(COC(C)=O)c4ccccc4[C@@]21O3 (stereo partly specified)	inactive
C=C1C[C@@]23O[C@]2(c2ccccc21)C1CC(OC(=O)[C@H](O)[C@@H](NC(=O)NCC)c2ccccc2)C3(C)C1(C)C (stereo partly specified)	inactive
